{
  "source": "paper PMC4336331",
  "about": "“Novel Receptor-Derived Cyclopeptides to Treat Heart Failure Caused by Anti-β1-Adrenoceptor Antibodies in a Human-Analogous Rat Model” (PLoS ONE, 2015)",
  "key": {"[1]": {"test_system": "anti-β1EC2-secreting cells", "experiment": "ELISPOT of splenocytes and bone marrow cells", "format": "in vivo, Lewis/CrlBR rats", "method": "(b) For ELISPOT assays plates were coated overnight with either 1.8 μg/ml anti-rat IgG (H+L) or the specific antigens (GST/β1EC2-FP or GST alone) in 50 mM Tris-buffer, pH 9.4. The plates were then washed 3 times, blocked with BSA (3h, 37°C), and incubated overnight at 37°C with splenocytes or bone marrow cells from rats treated as indicated in RPMI 1640/X-VIVO-15 medium supplemented with 10% FCS (1x10^3 to 10^6 cells per well). After 12 h the cells were discarded and the plates were washed several times (PBS/0.5% Tween) before an alkaline phosphatase-conjugated secondary anti-rat-IgG antibody (0.3 μg/ml) was added to detect bound rat IgG. After further incubation (3h, 37°C) and washing-steps (3 times PBS/0.5% Tween) the plates were developed using LMP/BCIP 5:1 (1.0 ml per well; LMP, low melting agarose; BCIP, 5-bromo-4-chloro-3-indolyl phosphate p-toluidine salt, a blue-colored dye).\nFig 5 Immunology of cyclic β1EC2-peptides: fate of β1EC2-specific T- and B-cells. (A) Titer-course of anti-β1EC2-abs in β1EC2-CP-treated rats during the first 6 months of the prevention-study before and 24h after cyclopeptide-injection. Time-points of antigen-boosts are indicated by (red) lines, time-points of CP-injections by (green) arrows. For better readability error-bars are not shown in the graph. (B) Pre-experiments (antigenic recall-assays) performed with CD4^+ T-cells prepared from spleens of GST/β1EC2 fusion-protein (FP)-immunised untreated (n = 3, black) vs. 0.9%NaCl-injected control rats (n = 3, white). (C and D) Reactivities of CD4^+ T-cells prepared from (C) preventively or (D) therapeutically β1EC2-CP- (green) or bisoprolol-treated animals (blue) compared to cells prepared from immunised untreated (black) or corresponding 0.9%NaCl-injected control rats (white). Columns ± error bars represent mean T-cell reactivities ±SEM normalized to medium (abbreviations: EC2-CP, cyclopeptide mimicking β1EC2; GST, glutathion-S-transferase; PPD, purified protein derivative; FP, GST/β1EC2 fusion-protein). […]"}, "[2]": {"test_system": "anti-β1EC2-induced heart failure (β1EC2/GST-FP-immunised rats)", "experiment": "Relative organ wet weights and body weight, prevention-study", "conditions": "month 16, mean ±SEM", "method": "In brief, n = 76 two months old Lewis/CrlBR rats were either s.c. immunised with 50 μg β1EC2/GST-FP, or n = 38 rats were control-injected with 0.9% NaCl (t = 0). To maintain high anti-β1EC2-titers, all immunised rats were boosted with β1EC2/GST-FP (or 0.9% NaCl) every month over 20 months as previously described. Application of the different linear or cyclic β1-AR peptides (corresponding to the primary AA-sequence of either the first (β1EC1) or the 2nd extra-cellular β1-AR loop (β1EC2)) or the β1-receptor blocker bisoprolol was initiated either 6 weeks after the 1st immunisation (i.e. 15 days after the 1st boost, prevention-study), or 8.5 months after the 1st immunisation (therapy-study).\nAfter the hearts all other relevant inner organs (e.g., lung, liver, spleen, kidneys, brain, and eyes) were removed, rinsed with ice-cold PBS, weighed, sectioned, and fixed for further histologic analysis."}, "[3]": {"test_system": "β1-AR mRNA", "experiment": "qRT-PCR of cardiac β1-AR mRNA, therapy-study", "format": "in vivo, Lewis/CrlBR rats", "conditions": "qRT-PCR normalised to GAPDH (Fig. 4C)", "quoted_text": "Total RNA was isolated from frozen myocardium by RNeasy mini Kit (Qiagen, Hilden, Germany). Reverse transcription of total RNA isolated from frozen myocardium was performed in 96-well plates utilising a high capacity RNA-to-cDNA master mix (Applied Biosystems, Foster City, CA). PCR reactions were conducted in the presence of the fluorescent dye Sybr-Green (Cambrex BioScience, East Rutherford, NY) and the reference-dye 6-carboxy-X-rhodamine (ROX) using an ABI PRISM sequence detection system 7700 (Applied Biosystems). All amplification products were controlled for specificity by running a melting curve analysis; results were calculated using the 2^-ΔΔCT method. The relative expression levels were derived from a standard curve and normalised to GAPDH as an endogenous control. Quantitative real-time PCR (qRT-PCR) analyses are presented as fold change compared to untreated (0.9% NaCl-injected) control hearts.\n(C) Molecular analysis of hearts (apical segments) from treated anti-β1EC2-positive rats and corresponding control animals in the therapy-study."}, "[4]": {"conditions": "immunised anti-β1EC2-positive rats, from 6 weeks after 1st immunisation EC2-CP 1.0 mg/kg i.v. every 4 weeks or bisoprolol 15 mg/kg/day orally over 12 months"}, "[5]": {"conditions": "non-immunised 0.9% NaCl-injected rats, EC2-CP 1.0 mg/kg i.v. every 4 weeks or bisoprolol 15 mg/kg/day orally over 12 months"}},
  "note": "Peptide text beside a SMILES is read from it.",
  "data": [
    {"smiles": "CC(C)[C@H](NC(=O)[C@H](Cc1ccccc1)NC(=O)[C@H](CC(=O)O)NC(=O)[C@H](CS)NC(=O)[C@H](CS)NC(=O)[C@H](CCCCN)NC(=O)[C@@H]1CCCN1C(=O)[C@H](CC(=O)O)NC(=O)[C@H](CC(N)=O)NC(=O)[C@H](Cc1ccc(O)cc1)NC(=O)[C@H](CS)NC(=O)[C@H](CCCNC(=N)N)NC(=O)[C@H](CCCNC(=N)N)NC(=O)[C@H](C)NC(=O)[C@H](CCC(=O)O)NC(=O)[C@H](CC(=O)O)NC(=O)[C@H](CO)NC(=O)[C@H](CCC(=O)O)NC(=O)[C@H](C)NC(=O)[C@H](CCCNC(=N)N)NC(=O)[C@H](C)N)C(=O)N[C@H](C(=O)N[C@@H](CC(N)=O)C(=O)N[C@@H](CCCNC(=N)N)C(=O)NCC(N)=O)[C@@H](C)O", "note": "[β1EC2-Lin] (H-ARAESDEARRCYNDPKCCDFVTNRG-NH2; N-terminus and C-terminus assumed)", "values": [
      {"measurement": "reduction in the frequencies of splenocytes secreting anti-β1EC2-abs, in words", "setting": "[1]; ELISPOT 3 days after antigen-boost (S5A Fig.)", "result": "not achieved"}
    ]},
    {"smiles": "CC(C)[C@@H]1NC(=O)[C@H](Cc2ccccc2)NC(=O)[C@H](CC(=O)O)NC(=O)[C@H](CS)NC(=O)[C@H](CS)NC(=O)[C@H](CCCCN)NC(=O)[C@@H]2CCCN2C(=O)[C@H](CC(=O)O)NC(=O)[C@H](CC(N)=O)NC(=O)[C@H](Cc2ccc(O)cc2)NC(=O)[C@H](CS)NC(=O)[C@H](CCCNC(=N)N)NC(=O)[C@H](CCCNC(=N)N)NC(=O)[C@H](C)NC(=O)[C@H](CCC(=O)O)NC(=O)[C@H](CC(=O)O)NC(=O)[C@H](CO)NC(=O)[C@H](CCC(=O)O)NC(=O)[C@H](C)NC(=O)[C@H](CCCNC(=N)N)NC(=O)[C@H](C)NC(=O)[C@H](CCC(N)=O)NC(=O)CNC(=O)[C@H](CCCNC(=N)N)NC(=O)[C@H](CC(N)=O)NC(=O)[C@H]([C@@H](C)O)NC1=O", "note": "[β1EC2-CP] (cyclo(AESDEARRCYNDPKCCDFVTNRGQAR))", "values": [
      {"measurement": "Heart, relative (wet) weight", "setting": "[2]; [4]", "result": "2.46 ± 0.05", "unit": "mg/g"},
      {"measurement": "Kidney L, relative (wet) weight", "setting": "[2]; [4]", "result": "2.71 ± 0.08", "unit": "mg/g"},
      {"measurement": "Kidney R, relative (wet) weight", "setting": "[2]; [4]", "result": "2.79 ± 0.06", "unit": "mg/g"},
      {"measurement": "Liver, relative (wet) weight", "setting": "[2]; [4]", "result": "23.59 ± 0.46", "unit": "mg/g"},
      {"measurement": "Lung, relative (wet) weight", "setting": "[2]; [4]", "result": "2.74 ± 0.14", "unit": "mg/g"},
      {"measurement": "Spleen, relative (wet) weight", "setting": "[2]; [4]", "result": "1.48 ± 0.05", "unit": "mg/g"},
      {"measurement": "Weight (body weight)", "setting": "[2]; [4]", "result": "543 ± 24", "unit": "g"},
      {"measurement": "Heart, relative (wet) weight", "setting": "[2]; [5]", "result": "2.50 ± 0.06", "unit": "mg/g"},
      {"measurement": "Kidney L, relative (wet) weight", "setting": "[2]; [5]", "result": "2.62 ± 0.08", "unit": "mg/g"},
      {"measurement": "Kidney R, relative (wet) weight", "setting": "[2]; [5]", "result": "2.79 ± 0.01", "unit": "mg/g"},
      {"measurement": "Liver, relative (wet) weight", "setting": "[2]; [5]", "result": "22.51 ± 0.20", "unit": "mg/g"},
      {"measurement": "Lung, relative (wet) weight", "setting": "[2]; [5]", "result": "2.77 ± 0.10", "unit": "mg/g"},
      {"measurement": "Spleen, relative (wet) weight", "setting": "[2]; [5]", "result": "1.58 ± 0.15", "unit": "mg/g"},
      {"measurement": "Weight (body weight)", "setting": "[2]; [5]", "result": "553 ± 11", "unit": "g"},
      {"measurement": "cardiac β1-AR mRNA-levels, in words", "setting": "[3]", "result": "returned to normal levels"},
      {"measurement": "overall numbers of IgG-producing cells, in words", "setting": "[1]; ELISPOT (Fig. 5F, H, and J)", "result": "not at all affected"},
      {"measurement": "frequencies of anti-β1EC2-producing (long-lived) PC, in words", "setting": "[1]; ELISPOT, splenocytes or bone marrow cells two weeks after the last antigen-boost (Fig. 5E and F)", "result": "did not reduce"}
    ]},
    {"smiles": "CC(C)NCC(O)COc1ccc(COCCOC(C)C)cc1", "note": "(stereo not drawn) [bisoprolol, reference compound]", "values": [
      {"measurement": "Heart, relative (wet) weight", "setting": "[2]; [4]", "result": "2.55 ± 0.06", "unit": "mg/g"},
      {"measurement": "Kidney L, relative (wet) weight", "setting": "[2]; [4]", "result": "2.63 ± 0.04", "unit": "mg/g"},
      {"measurement": "Kidney R, relative (wet) weight", "setting": "[2]; [4]", "result": "2.73 ± 0.07", "unit": "mg/g"},
      {"measurement": "Liver, relative (wet) weight", "setting": "[2]; [4]", "result": "22.63 ± 0.46", "unit": "mg/g"},
      {"measurement": "Lung, relative (wet) weight", "setting": "[2]; [4]", "result": "2.74 ± 0.07", "unit": "mg/g"},
      {"measurement": "Spleen, relative (wet) weight", "setting": "[2]; [4]", "result": "1.74 ± 0.05", "unit": "mg/g"},
      {"measurement": "Weight (body weight)", "setting": "[2]; [4]", "result": "533 ± 27", "unit": "g"},
      {"measurement": "Heart, relative (wet) weight", "setting": "[2]; [5]", "result": "2.50 ± 0.06", "unit": "mg/g"},
      {"measurement": "Kidney L, relative (wet) weight", "setting": "[2]; [5]", "result": "2.79 ± 0.05", "unit": "mg/g"},
      {"measurement": "Kidney R, relative (wet) weight", "setting": "[2]; [5]", "result": "2.90 ± 0.07", "unit": "mg/g"},
      {"measurement": "Liver, relative (wet) weight", "setting": "[2]; [5]", "result": "22.33 ± 0.78", "unit": "mg/g"},
      {"measurement": "Lung, relative (wet) weight", "setting": "[2]; [5]", "result": "2.66 ± 0.22", "unit": "mg/g"},
      {"measurement": "Spleen, relative (wet) weight", "setting": "[2]; [5]", "result": "1.79 ± 0.05", "unit": "mg/g"},
      {"measurement": "Weight (body weight)", "setting": "[2]; [5]", "result": "546 ± 8", "unit": "g"},
      {"measurement": "cardiac β1-AR mRNA-levels, in words", "setting": "[3]", "result": "returned to normal levels"}
    ]}
  ]
}
